The values that follow come from patent publication US20210069151A1, “[…] PHARMACEUTICAL COMBINATION OF THE ACTIVE ENANTIOMER S-KETOROLAC TR[…] TRAMADOL CHLORHYDRATE” (priority 2018, published 2021).

Experiment [1] deals with uric acid-induced gouty arthritis pain in the rat. Put plainly: pain-induced functional impairment model in the rat (PIFIR), antinociceptive effects. The format is in vivo, male Wistar rats. The settings on record: for Maximum efficacy (ABC: X ± E.E.): ABC of the FI % temporal curve over 4 h, at the dose that generates the maximum efficacy (S-ketorolac tromethamine 3.16 mg/kg, tramadol chlorhydrate 56.23 mg/kg); for Relative efficacy: compared to S-ketorolac tromethamine (= 1.0); for antinociceptive effects, dose dependence: single acute oral administration, evaluated for 4 hours, tramadol 5.6 to 56.2 mg/kg, S-ketorolac tromethamine 0.01 to 3.16 mg/kg. The text has this:
In order to determine the antinociceptive effects, male Wistar rats weighing between 180 and 200 g were employed. These were handled in accordance with the Official Mexican Norm (NOM-062-ZOO-1999) and in accordance with the general principles of lab animal care (NIH publication #85-23, revised in 1985). The minimum number of test animals were used (6 animals per experimental point for antinociceptive effects, motor coordination, and gastrointestinal damage, and 10 animals per experimental point for adverse effects: lethal dose 50). The animals were kept in a room with alternate cycles of light/darkness. Twelve hours before the antinociceptive tests, the food was withdrawn, and they only had free access to water. All of these experiments were conducted during the light phase.
The analgesics were dissolved or suspended in carboxymethyl cellulose at 0.5% and administered orally in a volume of 4 ml/kg.
This methodology is commonly known as “pain-induced functional impairment model in the rat” (PIFIR). This methodology was used to determine and compare the antinociceptive effects of these analgesics.
The methodology of the PIFIR experimental procedure is briefly described below: The animals were anesthetized in an anesthesia chamber saturated with isoflurane vapors. The gouty arthritis was induced by applying an intra-articular injection (i.art.) with 0.05 ml of uric acid suspended in mineral oil (at 30%) in the right hind limb, exactly in the femur-tibia-patella joint.
A 1 ml glass syringe with a No. 22, 4 mm long needle was used for the i.art. injection. Immediately afterward, an electrode was fixed on each hind limb in the middle of the plantar calluses. After the rats recovered from the anesthesia, they were placed in a 30 cm diameter stainless steel rotating cylinder. The cylinder was rotated at 4 rpm, forcing the rats to walk for 2 minutes every half hour for a total of 6.5 hours (2.5 h to generate the gouty arthritis and 4 h to evaluate the antinociceptive effects of the analgesics). The variable measured was the time of contact of each one of the hind limbs of the rats in the cylinder.
When the electrode and the cylinder make contact, a circuit closes, and the relationship between the time of contact of the extremity to which the uric acid was administered as compared to the one to which uric acid was not administered was registered in a computer. The percentage functionality indexes (FI %) are calculated with these variables. Once the total dysfunction (FI=0%) was produced due to the effect of the uric acid, the corresponding doses of each analgesic were administered individually or in combination.
The medium and standard error of the evaluation of the antinociceptive effects are presented in all of the graphics as from time “0,” which is the moment at which the arthritis is completely developed in the rat and is the precise moment of the administration of tramadol chlorhydrate and S-ketorolac tromethamine.
With the administration of these doses, the complete doses-responses of S-ketorolac tromethamine and tramadol chlorhydrate were plotted separately in order to perform a comparative analysis for efficacy and potency. In the case of tramadol chlorhydrate, the curves were obtained through a single and acute 4-hour administration in doses with algorithmic increases (of 5.6 to 56.2 mg/kg), (FIG. 1). The S-ketorolac tromethamine temporal curves were obtained through acute administration evaluated for 4 hours in doses with algorithmic increases (from 0.01 to 3.16 mg/kg).
After this, 24 different combinations of S-ketorolac tromethamine and tramadol chlorhydrate were analyzed in order to detect the type of interaction and the most significant combinations due to the degree of efficacy or the degree of antinociceptive potency.

The conditions of experiment [2]: background statement, cited from earlier work.
Experiment [3] in a line: pharmacological / analgesic potency relative to comparators (no method given). Type of experiment: in vivo.

“Also recorded” adds a separate entry of the source.

`COc1cccc([C@@]2(O)CCCC[C@@H]2CN(C)C)c1.Cl` (relative stereo) [Tramadol chlorhydrate, (1R,2R)-rel-2-[(dimethylamino)methyl]-1-(3-methoxyphenyl)cyclohexanol]: the “Maximum efficacy (ABC: X ± E.E.)” value in experiment [1] (po) is recorded as 216.7 ± 19.1 au. Also, in experiment [1] (po, listed as tramadol chlorhydrate), the “Maximum efficacy (ABC: X ± E.E.)” value came to 216.66 au. In addition, in experiment [1] (PIFIR, po), the “efficacy relative to that exhibited by S-ketorolac tromethamine” value turned out to be 70% and the Relative efficacy is on record as 0.70. For the same compound, in experiment [1], the “antinociceptive effects, dose dependence” value is reported as “doses-dependent antinociceptive effects; also recorded: antinociceptive effects that are dependent on the gouty arthritis-type pain dose”.
For the compound `O=C(c1ccccc1)c1ccc2n1CC[C@@H]2C(=O)O` [S-ketorolac tromethamine, 2-amino-2-hydroximethyl-1,3 propanediol (1:1) S-(−)-5-benzoyl-2,3-dihydro-1H-pyrrolizine-1-carboxylate], the “potency ratio of the S (−) enantiomer” value in experiment [2] (comparator not clearly printed) is reported as “approximately 60 times”. Besides, the “analgesic effect relative to the racemic form” value in experiment [2] was “almost double that of the racemic form”. Further, the “Maximum efficacy (ABC: X ± E.E.)” value in experiment [1] (po) amounted to 310.5 ± 13.5 au. Further, the Relative efficacy in experiment [1] (PIFIR, po) is reported as 1.0. Besides, in experiment [1], the “antinociceptive effects, dose dependence” value is “doses-dependent antinociceptive effects; also recorded: antinociceptive effects that are dependent on the gouty arthritis-type pain dose”. The “potency relative to AA” value in experiment [3] (times more potent than AA) came to 1037 times. The “potency relative to morphine” value in experiment [3] (times more potent than morphine) came out at 82 times. Also, in experiment [3] (times more potent than rac-ketorolac), the “potency relative to rac-ketorolac” value was 3.3 times.
